# Legend:
# Format in all cases: in vivo
# [1] = tested on: Erysiphe graminis f. sp. tritici; assay: Test A: wheat powdery mildew, preventive spray on wheat seedlings; settings: 200 ppm, 100 = 100% disease control, 0 = no control relative to controls; for pest or weed control at 200 ppm: Blumeria graminis, 192 h, read-out: Test A disease control rating
# Procedure, shortened: (§1)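 Spray suspensions: compound in acetone at 3% of final volume, diluted into acetone:water 1:1 containing 250 ppm polyhydric alcohol ester surfactant. Applied to run-off at 40 or 200 ppm; the higher level corresponds to 500 g/ha.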
# [2] = tested on: Puccinia recondita f. sp. tritici; assay: Test B: wheat leaf rust, preventive spray on wheat seedlings; settings: 200 ppm, 100 = 100% disease control, 0 = no control relative to controls; for pest or weed control at 200 ppm: Puccinia recondita, 192 h, read-out: Test B disease control rating
# Procedure, shortened: as §1
# [3] = tested on: Septoria nodorum; assay: Test C: wheat glume blotch, preventive spray on wheat seedlings; settings: 200 ppm, 100 = 100% disease control, 0 = no control relative to controls; for pest or weed control at 200 ppm: Parastagonospora nodorum, 216 h, read-out: Test C disease control rating
# Procedure, shortened: as §1
# [4] = tested on: Fusarium graminearum; assay: whole plant or invertebrate; settings: for Test E disease control rating: 200 ppm, 100 = 100% disease control, 0 = no control relative to controls; for pest or weed control at 200 ppm: Fusarium graminearum, in Triticum aestivum, 192 h, read-out: Test E disease control rating
# [5] = tested on: Botrytis cinerea; assay: Test F: tomato Botrytis, preventive spray on tomato seedlings; settings: 200 ppm, 100 = 100% disease control, 0 = no control relative to controls; for pest or weed control at 200 ppm: Botrytis cinerea, 120 h, read-out: Test F disease control rating
# Procedure, shortened: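 Compounds dissolved in acetone (3% of final volume), suspended in 50/50 acetone/water with 250 ppm Trem® 014. Sprayed preventively to run-off on tomato seedlings at 200 ppm (500 g/ha) or 40 ppm.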
# [6] = tested on: Colletotrichum orbiculare; assay: Test I: cucumber Colletotrichum anthracnose, preventive spray on cucumber seedlings; settings: 100 = 100% disease control, 0 = no control relative to controls; for Test I disease control rating: 200 ppm; for pest or weed control at 200 ppm: Colletotrichum orbiculare, 144 h, read-out: Test I disease control rating
# Procedure, shortened: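 Compound was dissolved in acetone (3% of final volume), then suspended in 50/50 acetone/water with 250 ppm Trem 014 surfactant. Cucumber seedlings were sprayed to run-off as a preventive treatment at 200 ppm (equivalent to 500 g/ha) or 40 ppm.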
# [7] = tested on: Rhizoctonia oryzae; assay: Test J: turf brown patch, preventive spray on creeping bent grass seedlings; settings: 200 ppm; 100 = 100% disease control, 0 = no control relative to controls
# Text: (§2) General protocol for preparing test suspensions for Tests A-R: The test compounds were first dissolved in acetone in an amount equal to 3% of the final volume and then suspended at the desired concentration (in ppm) in acetone and purified water (50/50 mix) containing 250 ppm of the surfactant Trem® 014 (polyhydric alcohol esters). The resulting test suspensions were then used in tests A-R. In Tests A-M, compounds were sprayed as a 200 ppm test suspension (equivalent to a rate of 500 g/ha) or as a 40 ppm test suspension to the point of runoff on the test plants. In Tests N-R, compounds were sprayed as a 100 g/ha test suspension (equivalent to a rate of 100 ppm) on the test plants at an application volume of 1000 L/ha. The test suspension was sprayed to the point of run-off on creeping bent grass seedlings.
# [8] = tested on: Phytophthora infestans; settings: 200 ppm; 100 = 100% disease control, 0 = no control relative to controls
# [9] = tested on: Plasmopara viticola; assay: Test L: grape downy mildew, spray after inoculation of grape seedlings; settings: 200 ppm; 100 = 100% disease control, 0 = no control relative to controls
# Text: as §2, with “L/ha. Grape seedlings were inoculated with a spore suspension of Plasmopara viticola (the causal agent of grape downy mildew) and incubated in a saturated atmosphere at 20° C. for 24 h. After a short drying period, the” for “L/ha. The”, “on the grape seedlings and then moved to a growth chamber at 20° C. for 6 days, after which time the test units were placed back into a saturated atmosphere at 20° C. for 24 h. Upon removal, disease ratings were made.” for “on creeping bent grass seedlings.”
# [10] = tested on: Pythium aphanidermatum; assay: Test M: bluegrass pythium blight, preventive spray on bluegrass seedlings; settings: 200 ppm; 100 = 100% disease control, 0 = no control relative to controls
# Text: as §2, with “bluegrass” for “creeping bent grass”
# [11] = tested on: Septoria tritici; assay: Test D: wheat leaf blotch, preventive spray on wheat seedlings; settings: Zymoseptoria tritici, 504 h; 200 ppm; 100 = 100% disease control, 0 = no control relative to controls; read-out: Test D disease control rating
# Procedure, shortened: as §1
SMILES,Test A disease control rating [1] [%],Test B disease control rating [2] [%],Test C disease control rating [3] [%],Test E disease control rating [4] [%],Test F disease control rating [5] [%],Test I disease control rating [6] [%],Test J disease control rating [7] [%],Test K disease control rating [8] [%],Test L disease control rating [9] [%],Test M disease control rating [10] [%],pest or weed control at 200 ppm [1] [%],pest or weed control at 200 ppm [2] [%],pest or weed control at 200 ppm [3] [%],pest or weed control at 200 ppm [11] [%],pest or weed control at 200 ppm [4] [%],pest or weed control at 200 ppm [5] [%],pest or weed control at 200 ppm [6] [%]
CC(CO)Nc1nccc(-c2ccnc(Nc3cccc(F)c3)c2)n1 (stereo not drawn) [Compound 48],0,99,87,0,15,26,0,0,0,0,–,–,–,–,–,–,–
COCC(C)Nc1nccc(-c2ccnc(Nc3cccc([N+](=O)[O-])c3)c2)n1 (stereo not drawn) [Compound 44],0,89,98,99,0,40,0,0,0,0,–,–,–,–,–,–,–
"COCC(C)Nc1cc(-c2ccnc(Nc3cccc(F)c3)n2)ncn1 (stereo not drawn) [Compound 106, N^2-(3-fluorophenyl)-N^6′-(2-methoxy-1-methylethyl) [4,4′-bipyrimidine]-2,6′-diamine]",–,–,–,–,–,–,0,0,0,0,24,94,99,17,32,85,37
COCC(C)Nc1nccc(-c2ccnc(Nc3ccc(F)cc3F)c2)n1 (stereo not drawn) [Compound 47],0,85,0,92,0,40,0,0,0,0,–,–,–,–,–,–,–
COCC(C)Nc1nccc(-c2ccnc(Nc3cccc(C)c3)c2)n1 (stereo not drawn) [Compound 51],88,99,98,48,99,92,0,0,0,0,–,–,–,–,–,–,–
COCC(C)Nc1nccc(-c2ccnc(Nc3ccccc3)c2)n1 (stereo not drawn) [Compound 43],29,99,99,100,92,90,9,0,0,0,–,–,–,–,–,–,–
COCC(C)Nc1nccc(-c2ccnc(Nc3cccc(Cl)c3F)c2)n1 (stereo not drawn) [Compound 46],0,91,97,94,7,0,0,0,0,0,–,–,–,–,–,–,–
"COCC(C)Nc1cc(-c2ccnc(Nc3cccc([N+](=O)[O-])c3)n2)ncn1 (stereo not drawn) [Compound 107, N^6′-(2-methoxy-1-methylethyl)-N^2-(3-nitrophenyl) [4,4′-bipyrimidine]-2,6′-diamine]",–,–,–,–,–,–,0,0,0,0,0,94,100,8,89,28,72
"COCC(C)Nc1cc(-c2ccnc(Nc3cccc(Cl)c3)n2)ncn1 (stereo not drawn) [Compound 105, N^2-(3-chlorophenyl)-N^6′-(2-methoxy-1-methylethyl) [4,4′-bipyrimidine]-2,6′-diamine]",–,–,–,–,–,–,0,0,0,0,0,97,92,–,73,78,0
COCC(C)Nc1nccc(-c2ccnc(Nc3c(F)cccc3F)c2)n1 (stereo not drawn) [Compound 49],86,99,92,81,90,67,0,0,0,0,–,–,–,–,–,–,–
COCC(C)Nc1nccc(-c2ccnc(Nc3ccc(F)cc3)c2)n1 (stereo not drawn) [Compound 50],0,99,84,72,94,96,0,0,0,0,–,–,–,–,–,–,–
CC(C)(C)Nc1nccc(-c2ccnc(Nc3cccc(F)c3)c2)n1 [Compound 45],77,79,98,90,20,8,0,0,0,0,–,–,–,–,–,–,–
COCC(C)Nc1cc(-c2ccnc(Nc3ccccc3)n2)ncn1 (stereo not drawn) [Compound 108],0,80,0,98,38,0,0,0,0,0,–,–,–,–,–,–,–

# Source: US8026359B2, “Fungicidal heterocyclic amines” (E.I. du Pont de Nemours and Company, priority 2007, dated 2011)
